Reference: US7838464B2, “Method for yield improvement in glyphosate-resistent legumes” (priority 2002, dated 2010)

Tested on: soya variety NIDERA AX 4910
Test: Field experiments: yield of glyphosate-resistant soya after foliar treatment
Assay type: in vivo
Experimental: The results shown hereinbelow were obtained in experiments in the, open which were carried out during the […] season in the Argentinian northern pampas. The plots used were arranged randomly relative to one another. Each treatment variant was replicated-four times. The crop plant used was the soya variety NIDERA AX 4910, which is resistant to numerous fungal diseases and to the herbicide glyphosate.
In all 5 experiments, two foliar treatments with glyphosate were carried out 30 or 60 days after planting the soya seeds, using equipment conventionally used under practice conditions. In the experiments 2 and 3, pyraclostrobin was added at “30 days after planting”, while pyraclostrobin was added at “60 days after planting” in the experiments 4 and 5.

Row | Molecule | Yield (experiment 1: glyphosate 360 g a.s./ha at 30 and at 60 days after planting, no pyraclostrobin, open field, 4 replicates) | yield in comparison with the conventional use of glyphosate alone (addition of pyraclostrobin 50 or 100 g a.s./ha to glyphosate at early (30 days) and late (60 days) treatment times)
1 | O=C(O)CNCP(=O)(O)O [glyphosate, N-(phosphonomethyl)glycine] | 100% | –
2 | pyraclostrobin | – | markedly increased the yield
